The values below come from patent publication US9708314B2, “Heterocyclic amide compound” (NISSAN CHEMICAL INDUSTRIES, LTD., priority 2013, dated 2017).

Holding throughout (assay type): in vivo
Series [1] deals with Echinochloa oryzacola Vasing. As to the kind of experiment: Test Example 1: herbicidal activity, application before weed generation in submerged conditions. As to conditions: Application herbicide amount 320 g/ha; Seventeenth Table. In a few lines:
(§1)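 Submerged pot test: alluvial soil, 4 cm water, seeds sown mixed, 2.5-leaf rice transplanted; emulsion in water applied to surface day of sowing, dose g/ha; greenhouse 25–30° C.; 3 wk; 0–5 rating.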

The next series deals with Monochoria vaginalis. The description is as above. The note with it: Application herbicide amount 320 g/ha; Seventeenth Table. In a few lines: as §1
A further series has as its system Scirpus juncoides. The series is described as above. The note with it: Application herbicide amount 320 g/ha; Seventeenth Table. In outline:
as §1

Series [2] has as its system transplanted Oryza sativa. As to the kind of experiment: Test Example 1: effect on crop, application before weed generation in submerged conditions. As to conditions: Application herbicide amount 320 g/ha; Seventeenth Table. In outline: as §1
Series [3] deals with Echinochloa oryzacola Vasing. As to the kind of experiment: Test Example 2: herbicidal activity, application during weed generation in submerged conditions. As to conditions: Eighteenth Table; application herbicide amount 320 g/ha. In outline: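 Paddy-type pot test: flooded soil, 4 cm depth, greenhouse 25–30 °C. Emulsion formulation diluted in water, applied to water surface at 1–2 leaf stage; rate expressed as g/ha. Read-out at 3 wk, 0–5 score.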

The next series has as its system Avena fatua. As to the kind of experiment: Test Example 4: herbicidal effect by application to foliage (diluvial soil, plastic box). As to conditions: foliage application. In outline:
(§2)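 Read-out is a 0–5 visual grade of herbicidal ratio (5: ≥90%, almost withered; 0: ≤5%) taken three weeks after treatment. Compound was applied as a diluted emulsion to stem and leaf parts of 14-day greenhouse-grown plants (25° C. to 30° C.) at rates expressed as g/ha.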

Series [4] deals with Echinochloa crus-galli var. crus-galli. The description is as above. The note with it: foliage application. In outline:
as §2

The test system of the next series is Galium spurium. The series is described as above. As to conditions: foliage application. In outline: as §2
The subject of a further series is Lolium multiflorum Lam. Described as above. The note with it: foliage application. In a few lines:
as §2

The mark [5] stands for this setting: Application herbicide amount 320 g/ha.

The structures appear in SMILES notation.

For `CC(C)[S+]([O-])c1nnc2c(C(=O)Nc3nnnn3C)ccc(C(F)(F)F)n12` (stereo not drawn) [2-032], the “A: Echinochloa oryzicola Vasing. (herbicidal effect grade)” value in [1] is recorded as 5 (Herbicidal ratio of 90% or more (almost completely withered)). In addition, the “C: Monochoria vaginalis (herbicidal effect grade)” value (from here on “C: Monochoria vaginalis”) with Monochoria vaginalis is 5 (Herbicidal ratio of 90% or more (almost completely withered)). For the same compound, in the series on Scirpus juncoides, the “B: Scirpus juncoides (herbicidal effect grade)” value (“B: Scirpus juncoides” for short) was 5 (Herbicidal ratio of 90% or more (almost completely withered)). Besides, the “a: transplanted Oryza sativa (effect on crop grade)” value (from here on “a: transplanted Oryza sativa”) in series [2] is reported as 5 (Herbicidal ratio of 90% or more (almost completely withered)). In addition, in series [3], the “A (Echinochloa oryzicola Vasing.) herbicidal ratio grade” value is 5 (Herbicidal ratio of 90% or more (almost completely withered)). For the same compound, the “I (Avena fatua) herbicidal effect grade” value with Avena fatua (320 g/ha) is given as 5 (Herbicidal ratio of 90% or more (almost completely withered)). Besides, the “H (Echinochloa crus-galli var. crus-galli) herbicidal effect grade” value in series [4] (320 g/ha) was 5 (Herbicidal ratio of 90% or more (almost completely withered)). Besides, in the series on Galium spurium (320 g/ha), the “Q (Galium spurium) herbicidal effect grade” value is recorded as 5 (Herbicidal ratio of 90% or more (almost completely withered)). Further, the “K (Lolium multiflorum Lam.) herbicidal effect grade” value in the series with Lolium multiflorum Lam. (320 g/ha) was 4 (Herbicidal ratio of 70% or more and less than 90%).

Take `COc1ccc(-c2nnc3c(C(=O)Nc4nnco4)ccc(C(F)(F)F)n23)cc1` [1-149]: the “A: Echinochloa oryzicola Vasing. (herbicidal effect grade)” value in series [1] is listed as 5 (Herbicidal ratio of 90% or more (almost completely withered)). For the same compound, the “C: Monochoria vaginalis” value in the series on Monochoria vaginalis is 3 (Herbicidal ratio of 40% or more and less than 70%). In addition, the “B: Scirpus juncoides” value in the series on Scirpus juncoides was 4 (Herbicidal ratio of 70% or more and less than 90%). The “a: transplanted Oryza sativa” value in [2] is 3 (Herbicidal ratio of 40% or more and less than 70%). Besides, in series [3], the “A (Echinochloa oryzicola Vasing.) herbicidal ratio grade” value is 3 (Herbicidal ratio of 40% or more and less than 70%). Also, the “I (Avena fatua) herbicidal effect grade” value in the series on Avena fatua (setting [5]) is 1 (Herbicidal ratio of 5% or more and less than 20%). Besides, the “H (Echinochloa crus-galli var. crus-galli) herbicidal effect grade” value in series [4] (setting [5]) was 4 (Herbicidal ratio of 70% or more and less than 90%). For the same compound, the “Q (Galium spurium) herbicidal effect grade” value with Galium spurium (setting [5]) was 3 (Herbicidal ratio of 40% or more and less than 70%). Besides, the “K (Lolium multiflorum Lam.) herbicidal effect grade” value in the series on Lolium multiflorum Lam. (setting [5]) is 1 (Herbicidal ratio of 5% or more and less than 20%).

Take `Cn1nnnc1NC(=O)c1ccc(C(F)(F)F)n2c(C[S+](C)[O-])nnc12` (stereo not drawn) [2-033]: the “A: Echinochloa oryzicola Vasing. (herbicidal effect grade)” value in [1] is recorded as 5 (Herbicidal ratio of 90% or more (almost completely withered)). Further, the “C: Monochoria vaginalis” value with Monochoria vaginalis is given as 5 (Herbicidal ratio of 90% or more (almost completely withered)). In addition, in the series with Scirpus juncoides, the “B: Scirpus juncoides” value was 4 (Herbicidal ratio of 70% or more and less than 90%). Moreover, the “a: transplanted Oryza sativa” value in series [2] was 4 (Herbicidal ratio of 70% or more and less than 90%). Further, the “A (Echinochloa oryzicola Vasing.) herbicidal ratio grade” value in series [3] was 4 (Herbicidal ratio of 70% or more and less than 90%). The “I (Avena fatua) herbicidal effect grade” value in the series with Avena fatua (320 g/ha) is given as 5 (Herbicidal ratio of 90% or more (almost completely withered)). Besides, the “H (Echinochloa crus-galli var. crus-galli) herbicidal effect grade” value in [4] (320 g/ha) is 5 (Herbicidal ratio of 90% or more (almost completely withered)). For the same compound, the “Q (Galium spurium) herbicidal effect grade” value in the series with Galium spurium (320 g/ha) is recorded as 5 (Herbicidal ratio of 90% or more (almost completely withered)). For the same compound, the “K (Lolium multiflorum Lam.) herbicidal effect grade” value with Lolium multiflorum Lam. (320 g/ha) was 4 (Herbicidal ratio of 70% or more and less than 90%).

With `CCC(CC)c1nnc2c(C(=O)Nc3nnco3)ccc(C(F)(F)F)n12` [1-145], the “A: Echinochloa oryzicola Vasing. (herbicidal effect grade)” value in [1] was 5 (Herbicidal ratio of 90% or more (almost completely withered)). The “C: Monochoria vaginalis” value in the series with Monochoria vaginalis is 5 (Herbicidal ratio of 90% or more (almost completely withered)). Also, the “B: Scirpus juncoides” value in the series with Scirpus juncoides was 5 (Herbicidal ratio of 90% or more (almost completely withered)). Also, the “a: transplanted Oryza sativa” value in [2] is 4 (Herbicidal ratio of 70% or more and less than 90%). For the same compound, the “A (Echinochloa oryzicola Vasing.) herbicidal ratio grade” value in [3] is 4 (Herbicidal ratio of 70% or more and less than 90%). In the series with Avena fatua (setting [5]), the “I (Avena fatua) herbicidal effect grade” value is 3 (Herbicidal ratio of 40% or more and less than 70%). In series [4] (setting [5]), the “H (Echinochloa crus-galli var. crus-galli) herbicidal effect grade” value is reported as 5 (Herbicidal ratio of 90% or more (almost completely withered)). Besides, the “Q (Galium spurium) herbicidal effect grade” value in the series on Galium spurium (setting [5]) was 1 (Herbicidal ratio of 5% or more and less than 20%). In addition, the “K (Lolium multiflorum Lam.) herbicidal effect grade” value in the series on Lolium multiflorum Lam. (setting [5]) is 2 (Herbicidal ratio of 20% or more and less than 40%).

For `O=C(Nc1nnco1)c1ccc(C(F)(F)F)n2c(C3CC3)nnc12` [1-144], the “A: Echinochloa oryzicola Vasing. (herbicidal effect grade)” value in [1] is recorded as 5 (Herbicidal ratio of 90% or more (almost completely withered)). For the same compound, the “C: Monochoria vaginalis” value in the series with Monochoria vaginalis was 3 (Herbicidal ratio of 40% or more and less than 70%). Besides, the “B: Scirpus juncoides” value in the series with Scirpus juncoides was 3 (Herbicidal ratio of 40% or more and less than 70%). The “a: transplanted Oryza sativa” value in [2] was 1 (Herbicidal ratio of 5% or more and less than 20%). For the same compound, in [3], the “A (Echinochloa oryzicola Vasing.) herbicidal ratio grade” value is 4 (Herbicidal ratio of 70% or more and less than 90%). Further, the “I (Avena fatua) herbicidal effect grade” value in the series on Avena fatua (setting [5]) is 2 (Herbicidal ratio of 20% or more and less than 40%). In [4] (setting [5]), the “H (Echinochloa crus-galli var. crus-galli) herbicidal effect grade” value is 5 (Herbicidal ratio of 90% or more (almost completely withered)). The “Q (Galium spurium) herbicidal effect grade” value in the series with Galium spurium (setting [5]) was 3 (Herbicidal ratio of 40% or more and less than 70%). For the same compound, the “K (Lolium multiflorum Lam.) herbicidal effect grade” value in the series on Lolium multiflorum Lam. (setting [5]) is 1 (Herbicidal ratio of 5% or more and less than 20%).

On to `CC(C)N(C)c1nnc2c(C(=O)Nc3nnco3)ccc(C(F)(F)F)n12` [1-122], for which the “A: Echinochloa oryzicola Vasing. (herbicidal effect grade)” value in series [1] is 5 (Herbicidal ratio of 90% or more (almost completely withered)). For the same compound, the “C: Monochoria vaginalis” value with Monochoria vaginalis is 5 (Herbicidal ratio of 90% or more (almost completely withered)). In the series on Scirpus juncoides, the “B: Scirpus juncoides” value is 5 (Herbicidal ratio of 90% or more (almost completely withered)). Besides, the “a: transplanted Oryza sativa” value in [2] is 3 (Herbicidal ratio of 40% or more and less than 70%). Besides, the “A (Echinochloa oryzicola Vasing.) herbicidal ratio grade” value in [3] was 4 (Herbicidal ratio of 70% or more and less than 90%). The “I (Avena fatua) herbicidal effect grade” value with Avena fatua (setting [5]) was 2 (Herbicidal ratio of 20% or more and less than 40%). Besides, the “H (Echinochloa crus-galli var. crus-galli) herbicidal effect grade” value in [4] (setting [5]) is listed as 5 (Herbicidal ratio of 90% or more (almost completely withered)). The “Q (Galium spurium) herbicidal effect grade” value with Galium spurium (setting [5]) is 4 (Herbicidal ratio of 70% or more and less than 90%). Also, the “K (Lolium multiflorum Lam.) herbicidal effect grade” value in the series on Lolium multiflorum Lam. (setting [5]) was 3 (Herbicidal ratio of 40% or more and less than 70%).

`O=C(Nc1nnco1)c1ccc(C(F)(F)F)n2c(N3CCOCC3)nnc12` [1-110]: in [1], the “A: Echinochloa oryzicola Vasing. (herbicidal effect grade)” value is given as 5 (Herbicidal ratio of 90% or more (almost completely withered)). Moreover, the “C: Monochoria vaginalis” value in the series on Monochoria vaginalis was 4 (Herbicidal ratio of 70% or more and less than 90%). Moreover, in the series with Scirpus juncoides, the “B: Scirpus juncoides” value was 4 (Herbicidal ratio of 70% or more and less than 90%). In addition, the “a: transplanted Oryza sativa” value in [2] is 4 (Herbicidal ratio of 70% or more and less than 90%). In addition, the “A (Echinochloa oryzicola Vasing.) herbicidal ratio grade” value in series [3] is 4 (Herbicidal ratio of 70% or more and less than 90%). Also, the “I (Avena fatua) herbicidal effect grade” value with Avena fatua (setting [5]) is 4 (Herbicidal ratio of 70% or more and less than 90%). In series [4] (setting [5]), the “H (Echinochloa crus-galli var. crus-galli) herbicidal effect grade” value was 5 (Herbicidal ratio of 90% or more (almost completely withered)). Moreover, the “Q (Galium spurium) herbicidal effect grade” value with Galium spurium (setting [5]) was 4 (Herbicidal ratio of 70% or more and less than 90%). In addition, in the series on Lolium multiflorum Lam. (setting [5]), the “K (Lolium multiflorum Lam.) herbicidal effect grade” value is 3 (Herbicidal ratio of 40% or more and less than 70%).

On to `Cc1nnc(NC(=O)c2ccc(C(F)(F)F)n3c(SCC(F)(F)F)nnc23)o1` [1-124], for which the “A: Echinochloa oryzicola Vasing. (herbicidal effect grade)” value in series [1] is 3 (Herbicidal ratio of 40% or more and less than 70%). In the series with Monochoria vaginalis, the “C: Monochoria vaginalis” value was 1 (Herbicidal ratio of 5% or more and less than 20%). Further, the “B: Scirpus juncoides” value in the series with Scirpus juncoides is 3 (Herbicidal ratio of 40% or more and less than 70%). Besides, the “a: transplanted Oryza sativa” value in [2] is 0 (Herbicidal ratio of 5% or less (almost no effect)). The “A (Echinochloa oryzicola Vasing.) herbicidal ratio grade” value in series [3] was 3 (Herbicidal ratio of 40% or more and less than 70%). The “I (Avena fatua) herbicidal effect grade” value with Avena fatua (setting [5]) was 2 (Herbicidal ratio of 20% or more and less than 40%). In series [4] (setting [5]), the “H (Echinochloa crus-galli var. crus-galli) herbicidal effect grade” value is recorded as 5 (Herbicidal ratio of 90% or more (almost completely withered)). Moreover, the “Q (Galium spurium) herbicidal effect grade” value in the series on Galium spurium (setting [5]) is 2 (Herbicidal ratio of 20% or more and less than 40%). Further, in the series with Lolium multiflorum Lam. (setting [5]), the “K (Lolium multiflorum Lam.) herbicidal effect grade” value is reported as 0 (Herbicidal ratio of 5% or less (almost no effect)).
